Laboratory results from US20060293381A1, “Fungicidal effect by regulating signal transduction pathways” (priority 2005, published 2006).
Entries after “also recorded” stand apart in the source; their conditions may differ. Read-outs that look alike come from different tables or passages of the source.

Legend:
C. neoformans [1] = assay type: cell-based, Cryptococcus neoformans
Method: (§1) FIG. 1: [A] Treatment of multiple strains of C. neoformans serotype A H99 with fludioxonil (1 ug ml^−1 and 10 ug ml^−1), calcineurin inhibitor FK506, and FK506+Fludioxonil (1 ug ml^−1). [B] Measurement of cell density of multiple strains of C. neoformans representing relative cell growth after incubation of C. neoformans in culture for 72 hours in various fludioxonil concentrations. The following serotype A strains were used for this assay: WT (H99) (♦), and cna1Δ (▴), hog1Δ (□) and cna1Δ hog1Δ (∘) mutant strains. [C] Measurement of WT H99, hog1Δ, and cna1Δ mutants grown for 48 hours exposed to disks containing 10 ug (Fludiox10), 50 ug (Fludiox50), or 100 ug (Fludiox100) of fludioxonil; 2 ug (FK5062) or 20 ug (FK50620) of FK506; 5 ul of 100% ethanol (ETOH) and dimethyl sulfoxide (DMSO).
Additionally, the fractional inhibitory concentration (FIC) was calculated to determine the FIC index, of which a value <1·0 denotes a synergistic interaction.

C. neoformans [2] = assay: Fungal growth on YPD agar containing the drug; assay type: cell-based, Cryptococcus neoformans
Method: To investigate whether C. neoformans is sensitive to fludioxonil, fungal growth was tested on YPD agar containing the drug. […] To elucidate the role of the HOG pathway in fludioxonil sensitivity, we tested the sensitivity of hog1Δ and pbs2Δ mutants that had been constructed before (Y S Bahn et al., Mol. Biol. Cell. (2005) 16: 2285-2300). […] To examine whether phosphorylation and kinase activity of Hog1 MAPK are required to confer fludioxonil sensitivity, we tested the sensitivity of cells expressing site-directed mutants of Hog1 at the phosphorylation sites (hog1+HOG1^T171A+Y173A) or the catalytic site (hog1+HOG1^K49S+K50N) (FIG. 1A).
(§2) Two C. neoformans serotypes were tested for sensitivity to fludioxonil at 1 μg/ml and 10 μg/ml to determine whether fludioxonil sensitivity is differentially regulated between the two strains and if it is controlled by the HOG pathway. […] S. cerevisiae is resistant to fludioxonil and was used as a control. Thus differential sensitivity to fludioxonil was seen between the two WT serotypes. The hog1Δ mutation in the serotype D strain JEC21 was resistant to fludioxonil, similar to WT JEC21 (FIG. 2). The hog1Δ mutation in the serotype A strain H99 background, however, was resistant to fludioxonil, unlike WT H99 (FIG. 2). This indicates a critical role for the Hog1 pathway in fludioxonil sensitivity.
To determine whether the differential fludioxonil sensitivity observed between the serotype A strain H99 and the serotype D strain JEC21 results from serotype- or strain-specific differences, fludioxonil sensitivity in multiple serotype A and D clinical and environmental strains was investigated. The Hog1 phosphorylation pattern after a 1 hour exposure to fludioxonil was monitored.

Hog1 MAPK = assay: Hog1 phosphorylation pattern by Western Blot; assay type: cell-based, Cryptococcus neoformans
From the text: (§3) FIG. 3: Measurements of Hog1 MAPK activation by rapid dephosphorylation in response to fludioxonil in C. neoformans. Measurements of phosphorylated Hog1 (P-Hog1) and unphosphorylated Hog1 (Hog1) are shown in C. neoformans serotype A strain H99 (H99 WT), H99 cna1Δ, serotype D strain JEC21 (JEC21 WT), and S. cerevisiae. The dual phosphorylation status of Hog1 (T171 and Y173) was monitored using antibody specific for dual phosphorylation of p38 MAPK (P-Hog1). The same blot was stripped and then probed with polyclonal anti-Hog1 antibody as a loading control (Hog1).
FIG. 4: Measurements of fludioxonil sensitivity and Hog1 phosphorylation patterns in response to fludioxonil in various clinical and environmental serotype A [A] and serotype D [B] isolates. Measurements of phosphorylated Hog1 (P-Hog1) and unphosphorylated Hog1 (Hog1) were done using Western Blot analysis.
(§4) To determine how Hog1 is regulated in response to fludioxonil in C. neoformans, Hog1 phosphorylation patterns were monitored by Western Blot analysis in response to fludioxonil. When the serotype A strain H99 was exposed to 1 or 10 ug ml^−1 fludioxonil ml^−1, Hog1 was dephosphorylated within 15 minutes and its dephosphorylation status was maintained for 3 hours (FIG. 3). […] On the other hand, in the serotype D strain JEC21 Hog1 was only slightly phosphorylated under normal conditions, only minimally further phosphorylated if at all after 15 minutes of exposure to fludioxonil, and subsequently maintained in an unphosphorylated state for up to 3 hours (FIG. 3). In contrast, Hog1 was rapidly phosphorylated in response to osmotic shock in strain JEC21.

Hog1 = Hog1 phosphorylation pattern by Western Blot; assay type: cell-based; details: S. cerevisiae
From the text: as §3, §4

C. neoformans [3] = assay: NCCLS drug susceptibility assay in liquid medium (MIC80, FIC index, cell density); assay type: cell-based, Cryptococcus neoformans
Method: as §1
To quantitatively measure fludioxonil sensitivity, we performed drug susceptibility assays according to NCCLS criteria using a range of fludioxonil concentrations (5 ng ml^−1 to 10 ug ml^−1) to determine the minimum inhibitory concentration (MIC). In this assay, the MIC80 of fludioxonil for the WT strain was <5 ug ml^−1 whereas the MIC80 for the cna1Δ mutant was <100 ng ml^−1 (FIG. 1B and Table 1).

C. neoformans [4] = assay: Microscopic observation of cell morphology after fludioxonil; assay type: cell-based, Cryptococcus neoformans
Method: (§5) FIG. 6: [A] Measurements of morphological changes in response to fludioxonil treatment (10 ug ml^−1 for 48 hours) in serotype A H99 WT [A-b], cna1Δ [A-c], and hog1Δ [A-d]. As a control, serotype A H99 WT was grown without fludioxonil [A-a]. Cells were then observed by microscopy (bar=20 um). [B] Measurements of glycerol content in cell extracts in response to fludioxonil treatment in serotype A WT strain H99, cna1Δ, hog1Δ, and the serotype D WT strain JEC21. Cells were grown to mid-exponential phase and then incubated in 10 ug fludioxonil ml^−1 for the time indicated. Glycerol content in cell extracts was measured by a UV-glycerol assay procedure and normalized to dry cell weight. Two individual experiments were performed and standard deviations are presented as error bars.
We microscopically observed cells after exposure to fludioxonil. […] As expected, the morphology of JEC21 cells was not affected by fludioxonil.

S. cerevisiae = assay: Fungal growth on agar containing fludioxonil (control species); assay type: cell-based
Method: FIG. 2: Differential fungicidal sensitivity between C. neoformans serotype A strain H99 and serotype D strain JEC21. WT indicates wildtype cells; hog1 indicates a mutant Hog1 gene hog1Δ. S. cerevisiae is used as a control.
as §2

C. neoformans [5] = assay: Glycerol content in cell extracts (UV-glycerol assay); assay type: cell-based, Cryptococcus neoformans
Method: as §5
We measured the glycerol content in C. neoformans after fludioxonil treatment for 1 and 3 hours (FIG. 6B). […] Increased intracellular glycerol levels may trigger non-physiological levels of water influx into the cell, resulting in cell swelling and growth inhibition. […] Alternatively, the cna1Δ mutant cells could be rapidly killed by Hog1 activation prior to accumulating glycerol, because fludioxonil has a fungicidal effect on the cna1Δ mutant (Table 1).

C. neoformans [6] = assay: Minimal fungicidal concentration (MFC), NCCLS criteria; assay type: cell-based; details: Cryptococcus neoformans; WT strain; fludioxonil alone
From the text: To determine whether fludioxonil is fungicidal or fungistatic to C. neoformans, minimal fungicidal concentrations (MFCs) were investigated in accordance with the NCCLS criteria (Table 2).

[7] = WT strain H99, fludioxonil disk 100 ug
[8] = serotype A strain H99, 1 or 10 ug ml^−1 fludioxonil

How did the “halo / growth inhibition around disk” value (C. neoformans [1]; [7]) turn out when `C=CC[C@@H]1/C=C(\C)C[C@H](C)C[C@H](OC)[C@H]2O[C@@](O)(C(=O)C(=O)N3CCCC[C@H]3C(=O)O[C@H](/C(C)=C/[C@@H]3CC[C@@H](O)[C@H](OC)C3)[C@H](C)[C@@H](O)CC1=O)[C@H](C)C[C@@H]2OC` [FK506] was run?
Its value is “not inhibited”.

What does the source list for `N#Cc1c[nH]cc1-c1cccc2c1OC(F)(F)O2` [fludioxonil, 4-(2,2-difluoro-1,3-benzodioxol-4-yl)pyrrole-3-carbonitrile]?
fludioxonil sensitivity (C. neoformans [2]; 12 independently derived AD hybrid strains): resistance similar to the parental strain JEC171; growth on agar containing drug (C. neoformans [2]; WT serotype D strain JEC21, 1 μg/ml and 10 μg/ml): complete resistance; growth on agar containing drug (C. neoformans [2]; cna1Δ and cnb1Δ mutants (H99 background)): hypersensitivity; growth on agar containing drug (C. neoformans [2]; hog1+HOG1^T171A+Y173A and hog1+HOG1^K49S+K50N site-directed mutants): as resistant to fludioxonil as the hog1Δ mutant; growth on agar containing drug (C. neoformans [2]; hog1Δ mutant (H99 background)): complete resistance; also recorded: resistant; growth on agar containing drug (C. neoformans [2]; hog1Δ mutation in serotype D strain JEC21): resistant; fludioxonil sensitivity (C. neoformans [2]; mpk1Δ mutant): hypersensitivity; growth defect in response to fludioxonil with osmotic stabilizer (C. neoformans [2]; mpk1Δ, mkk1Δ, bck1Δ mutants, supplementation with 1M sorbitol): partially rescued the growth defect; fludioxonil sensitivity (C. neoformans [2]; mutants lacking MKK1 and BCK1 genes): hypersensitivity; fludioxonil sensitivity (C. neoformans [2]; parental serotype A H99 (ura5)): sensitivity; fludioxonil sensitivity (C. neoformans [2]; parental serotype D JEC171 (ade2 lys2)): resistance; growth on agar containing drug (C. neoformans [2]; pbs2Δ mutant (H99 background)): complete resistance; strains sensitive to fludioxonil (C. neoformans [2]; serotype A clinical and environmental strains): 8 of 10; fludioxonil sensitivity (C. neoformans [2]; serotype A strains IN-38 and UG-20020, serotype D strains NIH433, JEC21, MMRL757): clear resistance; growth on agar containing drug (C. neoformans [2]; serotype A wild-type (WT) strain H99, fludioxonil 1 and 10 ug ml^−1): severely inhibited growth; also recorded: sensitivity; strains sensitive to fludioxonil (C. neoformans [2]; serotype D clinical and environmental strains): 6 of 9; Hog1 phosphorylation pattern (Hog1 MAPK; cna1Δ mutant, 1 ug or 10 ug fludioxonil ml^−1): almost identical to that observed in the wild-type strain; Hog1 activation in response to fludioxonil (Hog1 MAPK; resistant clinical/environmental strains, 1 hour incubation): not activated; Hog1 dephosphorylation status maintained (Hog1 MAPK; [8]): 3 h; time to Hog1 dephosphorylation (Hog1 MAPK; [8]): ≤ 15 min; Hog1 activation in response to fludioxonil (Hog1 MAPK; serotype D strain JEC21): only minimally activated, if at all; Hog1 activation in response to fludioxonil (Hog1): completely inactive; halo / growth inhibition around disk (C. neoformans [1]; [7]): only modest growth inhibition; halo / growth inhibition around disk (C. neoformans [1]; cna1Δ strain, disks with 10, 50, or 100 ug fludioxonil): large haloes; MIC80 (C. neoformans [3]; Cryptococcus neoformans, WT strain, read-out: MIC80): < 5 µg/mL; fludioxonil sensitivity (cell growth, FIG. 1B) (C. neoformans [3]; cna1Δ hog1Δ double mutant): complete resistance; MIC80 (C. neoformans [3]; cna1Δ mutant): < 0.1 µg/mL; growth in liquid culture (C. neoformans [3]; hog1Δ and cna1Δ hog1Δ mutants, even with 10 ug fludioxonil ml^−1): modest reduction of growth, but still showed robust resistance; cell morphology (C. neoformans [4]; JEC21 cells): not affected; cell morphology (C. neoformans [4]; WT H99, 10 ug ml^−1 for 48 hours): some cells were swollen, and interestingly were often attached to each other; cell morphology (C. neoformans [4]; cna1Δ mutant, 10 ug ml^−1 for 48 hours): even more severe cytokinesis defect; cell morphology (C. neoformans [4]; hog1Δ mutant, 10 ug ml^−1 for 48 hours): no swollen morphology or defects in cell division; growth on agar containing drug (S. cerevisiae): resistant; glycerol content (C. neoformans [5]; WT strain H99, 10 ug fludioxonil ml^−1, 1 and 3 hours): increased after 1 hour exposure, and to an even greater extent after 3 hour incubation; glycerol content (C. neoformans [5]; cna1Δ mutant, 10 ug fludioxonil ml^−1, 1 and 3 hours): increased following 1 hour treatment with fludioxonil but accumulation levels at 3 hours were lower than those of the WT; glycerol content (C. neoformans [5]; hog1Δ mutant, 10 ug fludioxonil ml^−1, 1 and 3 hours): no increase in glycerol; glycerol content (C. neoformans [5]; serotype D strain JEC21, 10 ug fludioxonil ml^−1): little or no glycerol; MFC (C. neoformans [6]): > 10 µg/mL
